Source: patent publication US6773892B1, “Methods of identifying and determining the effectiveness of therapeutic processes or agents for the treatment of schizophrenia and related disorders” (Northeastern University, priority 1997, dated 2004)
Like-named read-outs stand apart in the source and are kept apart here.

How the values were obtained:
D4 receptor = molecular target: T1, D4 receptor (Homo sapiens, UniProt P21917); assay: [14C] formate-labelled phospholipid methylation in CHO/D4 cells; type: cell-based; settings: absence of agonist
T1 construct: expressed in transfected cells; host or cells: CHO cells
T1 sequence (P21917 1-419): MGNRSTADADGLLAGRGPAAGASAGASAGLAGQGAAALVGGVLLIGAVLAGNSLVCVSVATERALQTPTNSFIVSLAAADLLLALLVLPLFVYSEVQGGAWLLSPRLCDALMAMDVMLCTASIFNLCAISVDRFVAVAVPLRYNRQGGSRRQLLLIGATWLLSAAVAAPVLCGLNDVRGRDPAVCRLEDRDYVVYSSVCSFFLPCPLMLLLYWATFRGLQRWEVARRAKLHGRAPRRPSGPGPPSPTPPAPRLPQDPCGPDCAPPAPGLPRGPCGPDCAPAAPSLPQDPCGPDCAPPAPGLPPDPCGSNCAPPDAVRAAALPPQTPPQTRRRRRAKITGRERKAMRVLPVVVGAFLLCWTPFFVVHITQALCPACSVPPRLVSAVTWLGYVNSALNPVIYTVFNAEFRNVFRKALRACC
Method: CHO cells transfected with the D4 receptor gene were fed with minimum essential medium (alpha modifications, with or without nucleosides) (pH 7.2) containing 2 mM L-glutamine, W/G418 antibiotic (400 mg/L), donor horse serum (2.5%), fetal bovine serum (2.5%), penicillin/streptomycin/fungizone (1%), CuSO4 (10^−6M). Cells (200,000 cells/well) were plated in 6-well- plates and placed in 5% CO2 incubator at 37° C.
Two-day-old confluent, cultured D4-transfected CHO cells were used for assay. The pH of Hank's balanced buffer (HBSS) was adjusted to pH 7.4 using sodium bicarbonate buffer. [^14C]-formic acid (1 μCi/ml) and pharmacological agents were added to HBSS. Feeding medium was removed from the well and then 600 μl of the HBSS solution with the radiolabelled formic acid (warmed to 37° C.) was added to each well of 6-well-plates. Plates were incubated at 37° C. for 30 minutes in the culture incubator. The reaction was stopped by washing once with ice-cold PBS (pH 7.4) and, after aspirating off the HBSS, 500 μl of 10% trichloroacetic acid (TCA) was added. Cells were harvested by scraping with a cell scraper and transferred into a plastic microcentrifuge tube. […] CPM values were normalized to the protein content of each sample and expressed as the mean +/− S.E.M. for the group. Differences between groups were analyzed by a t-test with p<0.05 as the criterion for significance.

dopamine D4 receptors = molecular target: T2, dopamine D4 receptors (Homo sapiens, UniProt P21917); settings: Schlacter et al., Soc. Neurosci. Abstr. 1995; read-out: reported KD; cited from earlier work
T2 sequence (P21917 1-419): T1 sequence (P21917 1-419)

lymphocytes = settings: for inhibition of phospholipid methylation below basal: haloperidol 1 μM with dopamine/GTP; for stimulation of phospholipid methylation: dopamine (10 μM) and GTP (1 μM)
Source text: In an early hypothesis (“the transmethylation hypothesis”), a defect resulting in the formation of hallucinogens was proposed. […] To determine whether D4 receptor-dependent phospholipid methylation was altered in individuals with schizophrenia, males ages 27-70 with well documented schizophrenia by DSM-IV criteria, were studied and compared with normal controls.
To determine whether D4 receptor-dependent phospholipid methylation was altered in schizophrenia, the labelling of phospholipids by [^3H]-methyl-methionine in lymphocytes obtained from people with schizophrenia (as defined by DSM IV diagnostic criteria Diagnostic and Statistical Manual of Mental Disorders (4th Edition), American Psychiatric Association, Washington, D.C., […], pp. 759-764) under medical treatment) was measured as compared to lymphocytes from healthy controls. Lymphocytes were isolated as previously described (De La Rosa et al., J. Biol. Chem. 267:10699, 1992) and aliquots of 4×10^6 cells were resuspended in Hank's balanced salt solution containing 8 μCi/ml [^3H-methyl]methionine for 60 min. […] Incorporation of [^3H-methyl] label into phospholipids was determined as described in Example I.

SK-N-MC cells = SK-N-MC cells grown in the presence of nucleosides
[1] = lymphocytes of schizophrenia patients

## CC(C)Oc1cccnc1N(C)C1CCN(Cc2ccccc2)CC1 [U-101,958]
D4 receptor; CHO/D4 cells grown in nucleoside-free medium
  effect on [14C] formate-labelled phospholipid methylation, FIG. 3b: dose-dependent inhibition
D4 receptor; CHO/D4 cells, read-out: IC50 of inhibition of phospholipid methylation
  IC50: 0.2 nM
Dopamine D4 receptors
  Kd: 1 nM

## O=C(CCCN1CCC(O)(c2ccc(Cl)cc2)CC1)c1ccc(F)cc1 [haloperidol]
lymphocytes; both control and schizophrenia lymphocytes, dopamine 10 μM and GTP 1 mM, with or without haloperidol 1 μM
  effect on methyl incorporation into phospholipids, FIG. 4B: significant decrease
lymphocytes; lymphocytes of normal controls
  inhibition of phospholipid methylation below basal: 25%
lymphocytes; [1]
  inhibition of phospholipid methylation below basal: 39%

## NCCc1ccc(O)c(O)c1 [dopamine]
lymphocytes; lymphocytes of normal controls
  stimulation of phospholipid methylation: 30%
lymphocytes; [1]
  stimulation of phospholipid methylation: 165%
SK-N-MC cells
  effect on [14C] formate-labelled phospholipid methylation, FIG. 3c: dose-dependent dopamine stimulation
